Test results: patent US11464770B2, “Anticancer pharmaceutical composition” (NATIONAL CANCER CENTER, priority 2016, dated 2022)
Where two headings read alike, the source gives them in different places.

Columns and labels:
[1] = system: zebrafish; experiment: Cardiotoxicity experiment using zebrafish (heart rate, lethality); format: in vivo; conditions: 5 uM, n = 10
[2] = system: cervical carcinoma cell lines; experiment: Cell based assay, cell viability (CellTiter-Glo), cervical carcinoma cell lines; conditions: Homo sapiens; HeLa cells
[3] = system: blood cancer cell lines (e.g. HL-60, Jurkat, Raji, Ramos, Daudi, MOLT-4); experiment: Cell based assay, cell viability (CellTiter-Glo), blood cancer cell lines; conditions: Homo sapiens
Outline: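 Read-out is ATP-dependent luminescence (CellTiter-Glo) taken after 72 h of exposure to compound at final concentrations from 0 to 2 μM. Cells were plated 24 h beforehand.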

[4] = system: KU-19-19: Bladder carcinoma; experiment: Cell based assay, cytotoxicity in KU19-19 cells; conditions: Homo sapiens, 72 hours
Procedure: (§1) Commercially available bladder cancer, prostate cancer, lung cancer, breast cancer, blood cancer, pancreatic cancer, colorectal cancer, brain cancer, neuroblastoma, melanoma, liver cancer, cervical carcinoma, ovarian cancer, renal cancer, and papilloma cell lines were each treated with trypsin-EDTA and cultured, followed by being seeded in each well of a 96 well plate. After 24 hours of treatment at constant temperature, the respective cells were treated with the candidate compound so that a final concentration became 0 to 2 μM. The treated cells were additionally cultured for 72 hours, and cell viability was measured by using an ATP detection method (CellTiter-Glo® Luminescent Cell Viability Assay, Promega).

[5] = system: human prostate cancer cell line (DU145); experiment: Tumor growth inhibition in animal model using DU145; format: in vivo; conditions: intraperitoneally administered twice a week, DU145 animal model (FIG. 2)
[6] = system: human lung cancer cell line (NCI-H1299); experiment: Tumor growth inhibition in animal model using NCI-H1299; format: in vivo; conditions: intraperitoneally administered three times a week, NCI-H1299 animal model (FIG. 1)
[7] = system: UM-UC-3: human urinary bladder transitional cell carcinoma; experiment: Cell based assay, cytotoxicity in UM-UC-3 cells; conditions: UMUC3, 72 hours
Procedure: as §1

[8] = system: MBT-2: Mouse bladder transitional cell carcinoma; experiment: Cell based assay, cytotoxicity in MBT-2 cells; conditions: 72 hours
Procedure: as §1

[9] = Cell based assay, cytotoxicity in RT4 papilloma cells (selectivity); parameters: species or system human; conditions: human; RT4 cells (benign), 72 hours
[10] = MV4-11, blood cancer cell line MV-4-11, 72 hours, read-out: IC50, MV-4-11
[11] = blood cancer cell line Daudi, 72 hours, read-out: IC50, Daudi
[12] = blood cancer cell line HL-60, 72 hours, read-out: IC50, HL-60
[13] = blood cancer cell line Jurkat, 72 hours, read-out: IC50, Jurkat
[14] = blood cancer cell line MOLT-4, 72 hours, read-out: IC50, MOLT-4
[15] = blood cancer cell line Raji, 72 hours, read-out: IC50, Raji
[16] = blood cancer cell line Ramos (RA 1), 72 hours, read-out: IC50, Ramos (RA 1)
[17] = blood cancer cell line U-937, 72 hours, read-out: IC50, U-937

## CC(=O)c1c([S+]([O-])Cc2ccc([N+](=O)[O-])cc2)[nH]c2c(Br)ccc(Cl)c2c1=O (centres unmarked) [Compound 33, 3-acetyl-8-bromo-5-chloro-2-((4-nitrobenzyl)sulfinyl)quinolin-4(1H)-one]
[1]; mean
  Changes (%) in heart rate: 97.3%
[1]
  Lethality: 0/10
[2]
  IC50: > 10000 nM
[3]; [10]
  IC50: 1280 nM
[3]; [11]
  IC50: > 2000 nM
[3]; [12]
  IC50: 1770 nM
[3]; [13]
  IC50: 1030 nM
[3]; [14]
  IC50: 1440 nM
[3]; [15]
  IC50: 970 nM
[3]; [16]
  IC50: > 2000 nM
[3]; [17]
  IC50: > 2000 nM

## CC(=O)c1c([S+]([O-])Cc2ccc(SC(F)(F)F)cc2)[nH]c2c(Br)ccc(Cl)c2c1=O (centres unmarked) [Compound 56, 3-acetyl-8-bromo-5-chloro-2-((4-((trifluoromethyl)thio)benzyl)sulfinyl)quinolin-4(1H)-one]
[4]
  IC50: 0.9 µM
[5]
  Effect of inhibiting tumor growth: effect of inhibiting tumor growth
[6]
  Effect of inhibiting tumor growth: effect of inhibiting tumor growth
[7]
  IC50: 1.25 µM
[8]
  IC50: 1.18 µM
[9]
  IC50 at 72 h: > 10 µM
[2]
  IC50: > 2000 nM
[3]; [10]
  IC50: 1500 nM
[3]; [11]
  IC50: 1250 nM
[3]; [12]
  IC50: 1950 nM
[3]; [13]
  IC50: 1060 nM
[3]; [14]
  IC50: 1660 nM
[3]; [15]
  IC50: 1120 nM
[3]; [16]
  IC50: 1860 nM
[3]; [17]
  IC50: 1750 nM

## Cc1cc(C[S+]([O-])c2[nH]c3c(Br)ccc(Cl)c3c(=O)c2C(=O)C(C)C)no1 (centres unmarked) [Compound 95, 8-bromo-5-chloro-3-isobutyryl-2-(((5-methylisoxazol-3-yl)methyl)sulfinyl)quinolin-4(1H)-one]
[2]
  IC50: > 2000 nM
[3]; [10]
  IC50: 700 nM
[3]; [11]
  IC50: 640 nM
[3]; [12]
  IC50: 980 nM
[3]; [13]
  IC50: 290 nM
[3]; [14]
  IC50: 1010 nM
[3]; [15]
  IC50: 1000 nM
[3]; [16]
  IC50: 520 nM
[3]; [17]
  IC50: 1060 nM
